Experimental data as given in article PMC3971658 (The Journal of General Physiology, 2014).

Assays:
[1] = test system: human Cav2.3c channel and GABABR
Rabbit Cav2.1 = format: cell-based; conditions: 50 µM
[2] = test system: human Cav2.1 (α1A-2) channel alone; format: cell-based; conditions: 50 µM
Human Cav2.3d = format: cell-based; conditions: 50 µM
[3] = test system: human Cav2.3c (α1E-c) channel alone; format: cell-based; conditions: 50 µM
Human Cav2.1 = format: cell-based; conditions: 50 µM
[4] = test system: R-type current, thalamocortical neurons; conditions: cited from earlier work
Human Cav2.3c = format: cell-based; conditions: 50 µM
[5] = test system: R-type current, rat DRG neurons; format: cell-based
[6] = test system: c-Src / human Cav2.1 channel and GABABR; format: cell-based

SMILES: NCC(CC(=O)O)c1ccc(Cl)cc1 (stereo not shown) [Baclofen, baclofen]
- V0.5,act [1]: −3.44 ± 0.67 mV
- IBa inhibition (Rabbit Cav2.1): ^#50.0 ± 5.0 (8) %
- IBa inhibition [2]: 0 (5) %
- IBa inhibition (Human Cav2.3d): 33.1 ± 1.8 (8) %
- IBa inhibition [3]: 0 (6) %
- IBa inhibition (Human Cav2.1): 44.4 ± 1.9 (9) %
- R-type current modulation [4]: R-type current modulation by baclofen has been demonstrated
- IBa inhibition (Human Cav2.3c): 44.0 ± 3.0 (10) %
- R-type current inhibition [5]: R-type current inhibition by baclofen
- baclofen inhibition of IBa with wild-type c-Src overexpression or pp60c-Src peptide [6]: did not affect baclofen inhibition of IBa
